Values quoted from earlier work, collected in US7833744B2, “Methods to evaluate cytochrome P450 2C19 isoenzyme activity using a breath test” (Cambridge Isotope Laboratories, Inc., priority 2006, dated 2010).

Legend:
platelets = conditions: healthy volunteers who carry CYP2C19*2 compared to CYP2C19*1*1 genotype
CYP2C19 [1] = target: CYP2C19 (Homo sapiens, UniProt P33261); conditions: in EMs
CYP2C19 [2] = conditions: PMs vs EMs

Sequence of CYP2C19 (Homo sapiens, UniProt P33261) (P33261 whole entry): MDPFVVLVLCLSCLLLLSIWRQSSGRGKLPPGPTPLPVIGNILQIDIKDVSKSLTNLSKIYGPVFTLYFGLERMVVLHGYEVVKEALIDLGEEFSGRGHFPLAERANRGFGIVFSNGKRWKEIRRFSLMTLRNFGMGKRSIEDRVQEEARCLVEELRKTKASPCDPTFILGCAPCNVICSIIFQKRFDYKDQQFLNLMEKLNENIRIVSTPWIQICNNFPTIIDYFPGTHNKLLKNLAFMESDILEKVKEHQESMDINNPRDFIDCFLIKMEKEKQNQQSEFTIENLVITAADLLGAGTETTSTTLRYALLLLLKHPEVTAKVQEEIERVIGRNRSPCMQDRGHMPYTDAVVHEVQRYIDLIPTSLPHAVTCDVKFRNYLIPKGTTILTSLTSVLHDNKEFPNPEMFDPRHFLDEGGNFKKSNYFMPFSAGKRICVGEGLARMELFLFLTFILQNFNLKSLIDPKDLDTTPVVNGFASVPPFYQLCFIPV

Structure (SMILES) | anti-platelet effect (platelets) | share of dose cleared by CYP2C19 (CYP2C19 [1]) | exposure in PMs relative to EMs of CYP2C19 (CYP2C19 [2])
COC(=O)[C@H](c1ccccc1Cl)N1CCc2sccc2C1 [clopidogrel] | no anti-platelet effect | – | –
Cc1c(OCC(F)(F)F)ccnc1C[S+]([O-])c1nc2ccccc2[nH]1 (stereo not shown) [lansoprazole] | – | approximately 80% | about six-fold higher
COc1ccc2[nH]c([S+]([O-])Cc3ncc(C)c(OC)c3C)nc2c1 (stereo not shown) [omeprazole] | – | approximately 80% | about six-fold higher
COc1ccnc(C[S+]([O-])c2nc3ccc(OC(F)F)cc3[nH]2)c1OC (stereo not shown) [pantoprazole] | – | approximately 80% | about six-fold higher
